Here are results for 8 molecules from ChEMBL document CHEMBL5465560, “Selectivity Literature for EUbOPEN Chemogenomic Library” (2024).

Molecules are shown by their SMILES. Bounds are passed on as bounds.

The target in assay [1] is T1, Serine/threonine-protein kinase Nek9 (Homo sapiens) (UniProt Q8TD19).
T1 sequence (whole entry): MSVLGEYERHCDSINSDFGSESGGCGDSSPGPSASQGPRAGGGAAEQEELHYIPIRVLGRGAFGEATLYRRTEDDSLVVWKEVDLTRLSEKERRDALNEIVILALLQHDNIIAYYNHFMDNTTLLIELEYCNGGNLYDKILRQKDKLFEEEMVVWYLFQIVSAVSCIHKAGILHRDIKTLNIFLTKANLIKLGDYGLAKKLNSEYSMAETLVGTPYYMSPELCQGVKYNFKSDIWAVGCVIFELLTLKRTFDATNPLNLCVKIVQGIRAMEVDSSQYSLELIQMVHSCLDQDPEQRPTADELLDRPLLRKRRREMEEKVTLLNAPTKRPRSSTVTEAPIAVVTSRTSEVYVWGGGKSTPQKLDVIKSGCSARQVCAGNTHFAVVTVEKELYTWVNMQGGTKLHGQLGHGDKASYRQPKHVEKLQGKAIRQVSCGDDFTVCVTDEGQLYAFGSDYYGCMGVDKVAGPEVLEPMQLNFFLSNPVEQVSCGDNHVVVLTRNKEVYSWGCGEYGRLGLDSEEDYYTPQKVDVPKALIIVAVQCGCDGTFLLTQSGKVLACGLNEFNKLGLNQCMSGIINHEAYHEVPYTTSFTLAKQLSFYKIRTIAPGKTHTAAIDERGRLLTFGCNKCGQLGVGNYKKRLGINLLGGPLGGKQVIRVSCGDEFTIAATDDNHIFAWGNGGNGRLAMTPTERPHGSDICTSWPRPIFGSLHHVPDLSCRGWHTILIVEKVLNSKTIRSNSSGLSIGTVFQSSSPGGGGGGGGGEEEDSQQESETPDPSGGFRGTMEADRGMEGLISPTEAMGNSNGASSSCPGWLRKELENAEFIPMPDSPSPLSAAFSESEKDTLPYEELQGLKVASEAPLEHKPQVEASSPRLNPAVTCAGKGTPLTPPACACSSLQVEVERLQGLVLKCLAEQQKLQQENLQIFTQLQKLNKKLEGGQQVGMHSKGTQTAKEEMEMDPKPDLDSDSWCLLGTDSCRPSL
The assay is described as follows: Selectivity interaction (Kinase panel (Z-LYTE Assay)) EUB0001632a NEK9. The conditions noted are these: at 10 µM.

Assay [2] addresses Cyclin-dependent kinase 2 (Homo sapiens, UniProt P24941). The assay is described as follows: Selectivity interaction (KinomeScan (DiscoverX)) EUB0000229b CDK2. The conditions noted are these: at 10 µM.
Assay [3] has as its target Phosphatidylinositol 4-phosphate 5-kinase type-1 alpha (Homo sapiens) (UniProt Q99755). Put plainly: Selectivity interaction (KinomeScan (DiscoverX)) EUB0000229b PIP5K1A. The conditions noted are these: at 10 µM.
The target in assay [4] is Mitogen-activated protein kinase 4 (Homo sapiens) (UniProt P31152). The assay is described as follows: Selectivity interaction (KinomeScan (DiscoverX)) EUB0000655a MAPK4. The conditions noted are these: at 10 µM.
Mitogen-activated protein kinase 4 (Homo sapiens), sequence (P31152 whole entry): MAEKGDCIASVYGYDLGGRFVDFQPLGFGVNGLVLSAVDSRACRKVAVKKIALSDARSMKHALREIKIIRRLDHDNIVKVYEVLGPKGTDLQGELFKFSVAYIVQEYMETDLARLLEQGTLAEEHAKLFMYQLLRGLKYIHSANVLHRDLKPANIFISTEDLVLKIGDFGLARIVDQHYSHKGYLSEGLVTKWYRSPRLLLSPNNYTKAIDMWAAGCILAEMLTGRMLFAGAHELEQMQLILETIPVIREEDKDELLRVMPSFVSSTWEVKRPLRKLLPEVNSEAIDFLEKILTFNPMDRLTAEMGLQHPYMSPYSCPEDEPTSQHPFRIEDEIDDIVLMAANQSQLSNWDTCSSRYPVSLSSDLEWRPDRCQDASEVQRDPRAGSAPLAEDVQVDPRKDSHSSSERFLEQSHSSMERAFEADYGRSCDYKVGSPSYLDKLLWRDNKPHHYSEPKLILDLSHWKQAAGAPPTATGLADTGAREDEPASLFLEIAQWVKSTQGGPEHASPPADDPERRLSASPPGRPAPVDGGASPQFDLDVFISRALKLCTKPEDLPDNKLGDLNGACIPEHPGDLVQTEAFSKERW
Assay [5] addresses Proto-oncogene tyrosine-protein kinase ROS (Homo sapiens) (UniProt P08922). Put plainly: Selectivity interaction (KinomeScan (DiscoverX)) EUB0000655a ROS1. Conditions: at 10 µM.
In assay [6] the target is Cyclin-dependent kinase-like 3 (Homo sapiens) (UniProt Q8IVW4). The assay is described as follows: Selectivity interaction (KinomeScan (DiscoverX)) EUB0001079a CDKL3. The conditions noted are these: at 1 µM.
In assay [7] the target is Gastrin/cholecystokinin type B receptor (Homo sapiens, UniProt P32239). Put plainly: Selectivity interaction (Cholecystokinin B receptor binding assay, human recombinant ) EUB0000877a CCKBR.
The target of assay [8] is Cyclin-dependent kinase 4 (Homo sapiens, UniProt P11802). Put plainly: Selectivity interaction (Kinase panel (33PanQinase(R) Activity Assay)) EUB0000877a CDK4.
Cyclin-dependent kinase 4, sequence (P11802 whole entry): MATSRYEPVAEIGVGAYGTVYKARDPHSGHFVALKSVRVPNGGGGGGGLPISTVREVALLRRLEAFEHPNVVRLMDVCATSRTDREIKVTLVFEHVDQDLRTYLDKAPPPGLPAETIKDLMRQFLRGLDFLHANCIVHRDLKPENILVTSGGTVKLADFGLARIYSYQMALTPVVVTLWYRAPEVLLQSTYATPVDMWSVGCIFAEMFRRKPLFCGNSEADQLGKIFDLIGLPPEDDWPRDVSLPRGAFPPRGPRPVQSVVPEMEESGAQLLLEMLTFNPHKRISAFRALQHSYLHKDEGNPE
Assay [9] concerns the target Cyclin-dependent kinase 5 (Homo sapiens, UniProt Q00535). Put plainly: Selectivity interaction (ActivX KiNativ screen (kinase selectivity in THP-1 cell lysates)) EUB0000639a CDK5. The conditions noted are these: lysate, at 0.2 µM. In kind it is subcellular.
Assay [10] has as its target Serine/threonine-protein kinase Nek7 (Homo sapiens) (UniProt Q8TDX7). Put plainly: Selectivity interaction (ActivX KiNativ screen (kinase selectivity in THP-1 cell lysates)) EUB0000639a NEK7. It counts as subcellular. The conditions noted are these: lysate, at 5 µM.
The target of assay [11] is T2, G protein-coupled receptor kinase 3 (Homo sapiens) (UniProt P35626).
T2 sequence (whole entry): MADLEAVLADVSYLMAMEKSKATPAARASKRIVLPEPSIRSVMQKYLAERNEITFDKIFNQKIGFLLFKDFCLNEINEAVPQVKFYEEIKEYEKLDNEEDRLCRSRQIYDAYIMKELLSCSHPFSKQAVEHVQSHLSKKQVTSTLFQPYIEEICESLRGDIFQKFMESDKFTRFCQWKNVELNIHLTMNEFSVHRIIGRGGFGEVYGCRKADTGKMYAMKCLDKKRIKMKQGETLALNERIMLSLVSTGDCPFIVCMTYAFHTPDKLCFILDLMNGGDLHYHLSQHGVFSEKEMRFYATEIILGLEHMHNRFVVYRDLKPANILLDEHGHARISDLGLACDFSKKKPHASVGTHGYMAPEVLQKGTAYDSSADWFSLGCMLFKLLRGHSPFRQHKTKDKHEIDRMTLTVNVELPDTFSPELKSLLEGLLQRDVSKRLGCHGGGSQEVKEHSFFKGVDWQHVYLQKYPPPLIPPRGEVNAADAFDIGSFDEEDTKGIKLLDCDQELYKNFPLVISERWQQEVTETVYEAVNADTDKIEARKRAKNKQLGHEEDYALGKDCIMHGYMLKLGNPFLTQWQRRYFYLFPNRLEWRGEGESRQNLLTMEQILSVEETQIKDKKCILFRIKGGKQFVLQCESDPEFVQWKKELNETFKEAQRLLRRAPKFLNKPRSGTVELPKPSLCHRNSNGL
Put plainly: Selectivity interaction (KinomeScan (DiscoverX)) EUB0000695a ADRBK2. The conditions noted are these: at 100 nM.

Assay [12] addresses Serine/threonine-protein kinase NIM1 (Homo sapiens, UniProt Q8IY84). Put plainly: Selectivity interaction (KinomeScan (DiscoverX)) EUB0000092b NIM1K. Conditions: at 10 µM.
The target of assay [13] is BDNF/NT-3 growth factors receptor (Homo sapiens) (UniProt Q16620). Put plainly: Selectivity interaction (KinomeScan (DiscoverX)) EUB0000092b NTRK2. Conditions: at 10 µM.
BDNF/NT-3 growth factors receptor (Homo sapiens), sequence (Q16620 32-822 limits assumed): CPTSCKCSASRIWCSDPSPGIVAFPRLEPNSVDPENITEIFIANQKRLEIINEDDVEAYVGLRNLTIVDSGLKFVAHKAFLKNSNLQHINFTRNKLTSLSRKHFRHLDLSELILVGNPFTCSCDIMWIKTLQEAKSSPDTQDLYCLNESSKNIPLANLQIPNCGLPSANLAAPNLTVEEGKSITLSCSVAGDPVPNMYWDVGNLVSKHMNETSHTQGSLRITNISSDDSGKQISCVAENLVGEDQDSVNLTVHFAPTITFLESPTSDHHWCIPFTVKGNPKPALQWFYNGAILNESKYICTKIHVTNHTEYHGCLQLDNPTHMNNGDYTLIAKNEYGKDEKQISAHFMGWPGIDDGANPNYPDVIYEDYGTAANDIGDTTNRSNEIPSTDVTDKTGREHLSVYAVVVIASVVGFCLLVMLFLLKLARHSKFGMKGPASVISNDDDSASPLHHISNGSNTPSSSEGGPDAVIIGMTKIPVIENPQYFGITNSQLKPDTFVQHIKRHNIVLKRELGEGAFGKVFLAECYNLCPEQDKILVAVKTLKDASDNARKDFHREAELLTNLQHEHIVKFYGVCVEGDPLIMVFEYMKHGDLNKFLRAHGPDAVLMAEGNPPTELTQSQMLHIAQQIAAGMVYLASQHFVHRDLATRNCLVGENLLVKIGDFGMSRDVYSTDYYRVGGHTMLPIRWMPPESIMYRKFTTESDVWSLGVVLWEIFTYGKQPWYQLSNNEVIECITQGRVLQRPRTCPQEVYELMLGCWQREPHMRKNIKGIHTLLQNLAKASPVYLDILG

Cyclin-dependent kinase 5, sequence (Q00535 whole entry, looked up): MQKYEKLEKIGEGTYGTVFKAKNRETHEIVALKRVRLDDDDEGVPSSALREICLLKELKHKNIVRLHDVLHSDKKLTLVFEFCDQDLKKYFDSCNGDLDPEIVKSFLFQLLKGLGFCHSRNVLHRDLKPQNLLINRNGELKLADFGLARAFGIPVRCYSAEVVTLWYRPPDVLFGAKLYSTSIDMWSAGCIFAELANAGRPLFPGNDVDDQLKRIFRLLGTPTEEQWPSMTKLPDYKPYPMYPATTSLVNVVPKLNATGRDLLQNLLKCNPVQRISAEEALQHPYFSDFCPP
Proto-oncogene tyrosine-protein kinase ROS (Homo sapiens), sequence (P08922 whole entry): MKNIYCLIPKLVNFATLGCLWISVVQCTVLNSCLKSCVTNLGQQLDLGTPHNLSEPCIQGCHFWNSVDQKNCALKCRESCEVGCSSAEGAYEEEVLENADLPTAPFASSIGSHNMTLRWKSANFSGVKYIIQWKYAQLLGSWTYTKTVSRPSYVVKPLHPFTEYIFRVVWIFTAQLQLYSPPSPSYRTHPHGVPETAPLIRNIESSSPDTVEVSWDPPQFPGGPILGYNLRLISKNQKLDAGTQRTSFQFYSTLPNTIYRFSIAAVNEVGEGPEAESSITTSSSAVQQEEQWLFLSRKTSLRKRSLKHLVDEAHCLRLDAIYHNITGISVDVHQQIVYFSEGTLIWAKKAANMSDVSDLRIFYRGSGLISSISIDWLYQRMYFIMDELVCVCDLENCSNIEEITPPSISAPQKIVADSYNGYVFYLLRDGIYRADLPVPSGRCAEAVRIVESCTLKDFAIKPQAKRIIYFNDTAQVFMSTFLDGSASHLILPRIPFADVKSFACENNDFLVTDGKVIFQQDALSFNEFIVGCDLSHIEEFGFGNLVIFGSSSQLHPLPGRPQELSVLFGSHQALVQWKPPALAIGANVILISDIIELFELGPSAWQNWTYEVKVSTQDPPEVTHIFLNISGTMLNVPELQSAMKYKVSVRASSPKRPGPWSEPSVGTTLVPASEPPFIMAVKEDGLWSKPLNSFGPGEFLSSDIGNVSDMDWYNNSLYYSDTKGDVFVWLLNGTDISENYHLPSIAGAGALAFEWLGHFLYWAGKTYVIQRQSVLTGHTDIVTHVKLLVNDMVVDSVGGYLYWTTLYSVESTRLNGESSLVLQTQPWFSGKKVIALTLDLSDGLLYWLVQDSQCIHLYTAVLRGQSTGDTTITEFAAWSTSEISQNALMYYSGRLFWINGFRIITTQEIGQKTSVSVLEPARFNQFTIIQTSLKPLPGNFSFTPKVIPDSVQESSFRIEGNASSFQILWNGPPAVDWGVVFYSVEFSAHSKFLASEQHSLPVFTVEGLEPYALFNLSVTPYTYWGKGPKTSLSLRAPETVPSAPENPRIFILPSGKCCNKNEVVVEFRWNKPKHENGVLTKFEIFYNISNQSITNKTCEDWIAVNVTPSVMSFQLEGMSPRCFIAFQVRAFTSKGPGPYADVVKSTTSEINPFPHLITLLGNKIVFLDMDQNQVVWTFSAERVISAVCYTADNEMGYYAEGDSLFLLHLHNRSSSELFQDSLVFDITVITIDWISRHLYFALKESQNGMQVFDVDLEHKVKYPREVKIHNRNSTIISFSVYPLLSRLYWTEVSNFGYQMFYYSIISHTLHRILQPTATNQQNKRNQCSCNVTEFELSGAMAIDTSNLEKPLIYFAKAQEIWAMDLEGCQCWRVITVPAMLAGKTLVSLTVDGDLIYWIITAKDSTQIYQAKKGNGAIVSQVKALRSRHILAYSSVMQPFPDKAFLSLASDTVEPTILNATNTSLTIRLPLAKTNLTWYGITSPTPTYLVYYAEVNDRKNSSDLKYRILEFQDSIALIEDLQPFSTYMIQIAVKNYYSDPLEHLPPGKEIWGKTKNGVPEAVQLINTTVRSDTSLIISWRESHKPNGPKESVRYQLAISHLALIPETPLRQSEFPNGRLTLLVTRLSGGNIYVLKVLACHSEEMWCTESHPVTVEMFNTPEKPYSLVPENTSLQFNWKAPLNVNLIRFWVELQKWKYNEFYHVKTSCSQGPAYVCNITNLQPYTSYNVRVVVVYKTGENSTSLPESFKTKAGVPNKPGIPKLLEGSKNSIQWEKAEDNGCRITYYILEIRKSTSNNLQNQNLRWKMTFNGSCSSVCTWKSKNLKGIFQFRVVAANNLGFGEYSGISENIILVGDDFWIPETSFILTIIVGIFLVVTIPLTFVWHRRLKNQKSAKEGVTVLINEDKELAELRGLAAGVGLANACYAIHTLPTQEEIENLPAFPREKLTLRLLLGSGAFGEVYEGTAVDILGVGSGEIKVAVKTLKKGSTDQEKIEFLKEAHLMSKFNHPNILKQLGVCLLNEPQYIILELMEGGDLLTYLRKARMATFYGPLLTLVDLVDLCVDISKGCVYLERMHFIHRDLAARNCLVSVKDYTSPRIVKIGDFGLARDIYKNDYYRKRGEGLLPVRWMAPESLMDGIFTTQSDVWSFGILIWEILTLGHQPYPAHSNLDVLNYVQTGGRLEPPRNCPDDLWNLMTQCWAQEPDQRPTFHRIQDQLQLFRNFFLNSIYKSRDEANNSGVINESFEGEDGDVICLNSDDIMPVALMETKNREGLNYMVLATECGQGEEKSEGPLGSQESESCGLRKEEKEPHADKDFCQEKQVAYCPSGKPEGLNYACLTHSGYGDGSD
Serine/threonine-protein kinase NIM1, sequence (Q8IY84 whole entry): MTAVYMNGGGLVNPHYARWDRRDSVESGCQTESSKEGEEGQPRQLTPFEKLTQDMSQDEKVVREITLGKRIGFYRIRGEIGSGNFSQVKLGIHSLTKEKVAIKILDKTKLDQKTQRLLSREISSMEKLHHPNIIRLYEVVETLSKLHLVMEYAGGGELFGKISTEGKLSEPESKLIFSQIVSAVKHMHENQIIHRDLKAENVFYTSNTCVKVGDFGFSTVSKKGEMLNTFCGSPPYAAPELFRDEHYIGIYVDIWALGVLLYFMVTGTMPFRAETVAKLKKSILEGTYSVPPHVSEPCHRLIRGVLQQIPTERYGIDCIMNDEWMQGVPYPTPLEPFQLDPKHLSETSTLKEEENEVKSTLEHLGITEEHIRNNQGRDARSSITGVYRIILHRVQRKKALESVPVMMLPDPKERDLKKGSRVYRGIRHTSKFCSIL
Serine/threonine-protein kinase Nek7 (Homo sapiens), sequence (Q8TDX7 whole entry, looked up): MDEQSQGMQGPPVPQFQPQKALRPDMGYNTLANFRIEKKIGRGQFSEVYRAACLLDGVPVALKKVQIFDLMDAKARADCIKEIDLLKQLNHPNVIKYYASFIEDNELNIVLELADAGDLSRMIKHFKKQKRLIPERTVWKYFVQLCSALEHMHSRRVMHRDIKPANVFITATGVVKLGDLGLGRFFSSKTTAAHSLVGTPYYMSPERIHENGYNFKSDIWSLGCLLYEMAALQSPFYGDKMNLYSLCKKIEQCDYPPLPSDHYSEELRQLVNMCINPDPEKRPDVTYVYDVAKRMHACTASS

Take `Cn1cc(-n2cnc3c(NCc4nc5cc(Cl)c(Cl)cc5[nH]4)nc(N4CCOCC4)nc32)cn1`: in [1], the % of control was -0.159%.

On to `COc1cc(N(C)c2ccnc3ccc(C(F)(F)F)cc23)cc(OC)c1OC`, for which the % binding in [2] came to 100%; in [3], 76%.

`CN(C)CCOc1ccc(-c2nc(-c3ccncc3)c(-c3ccc4c(c3)CC/C4=N\O)[nH]2)cc1`: the % of control in assay [4] is 100%; in assay [5] it was 88%.

As for `Nc1cnc(N2CCc3cc(S(=O)(=O)Nc4c(F)cc(Cl)cc4F)cc(N4CCCC4=O)c32)nc1` [TP-020n], the % of control in assay [6] worked out at 100%.

For `CCC(=O)N1CC[C@H](Nc2ncnc3c2CN(c2cnc(OC)c(C(F)(F)F)c2)CC3)C1` [LENIOLISIB], the IC50 in assay [7] was greater than 30 µM; in assay [8] it was greater than 10 µM.

On to `CC[C@@H]1[C@H](F)C(=O)N[C@@H]1COc1nccc2cc(C(N)=O)c(OC)cc12` [ZIMLOVISERTIB], for which the % of inhibition in assay [9] is -6.8%; in assay [10] it was -1.4%.

Turning to `Cc1cc(F)c(C(=O)Nc2cccc(-c3nncn3C(C)C)n2)cc1-n1cnc(C2CC2)c1`, the % of control in assay [11] was 91%.

Consider `CCC(=O)N1CCN(c2ccc(-n3c(=O)ccc4cnc5ccc(-c6cnc7ccccc7c6)cc5c43)cc2C(F)(F)F)CC1`, for which the % of control stood at 84% in assay [12] and 81% in assay [13].

As usually defined, the IC50 is the concentration at which inhibition is half-maximal.
